{"source": "patent US7449495B2", "about": "“Retinoid derivatives with antiangiogenic, antitumoral and proapoptotic activities” (Sigma-Tau Industrie Farmaceutiche Riunite S.p.A., priority 2001, dated 2008)", "key": {"[1]": {"test_system": "Human Promyelocytic Leukaemia HL-60 Cells", "assay": "Cyto-fluorometric cell cycle analysis, HL-60", "format": "cell-based", "conditions": "for APOPTOSIS / G0/G1 / G2 + M / S: 3 days; for G0/G1 / G2 + M / S: percentage of cell cycle phase", "method": "To evaluate the effect of the compound according to the invention, on various phases of the cell cycle, cyto-fluorometric cell cycle analyses were performed.\nHL60 or NB4 cells were seeded onto plates at a density of 150.000 cells/ml in RPMI 1640 medium containing 10% FCS, the test compound (ST 1926) was added, […], in the presence or absence of sub-optimal doses of ATRA (5-10 nM for NB4 and 0.5 μM for HL60) in the dark and placed in an incubator for 3 days without changing the culture medium.\nOn the third day of treatment 500.000 cells were sampled, centrifuged at 180×g for 5 minutes, washed twice in calcium and magnesium free PBS. The cells (1×10^6/ml of fixative) were fixed for at least 1 hour in a fixation mixture comprised of acetone/methanol 1:4 v/v maintained at −20° C. and 50% of calcium and magnesium free PBS; then the cells were centrifuged, washed in calcium and magnesium free PBS, and again centrifuged and washed. The cellular precipitate was incubated for 30 minutes in the dark at room temperature with 200 μl of […] (100 μg/ml) and 200 μl of RNAse (150 KU/mg).\nThe samples with filtered through nylon filters (60-80 μm diameter) and analysed by cyto-fluorimeter FACScan (Becton Dickinson), acquiring 20000 events/sample, at an excitation wavelength of 488 nm and emission wavelength of 620 nm. The analysis of the percentages of the cell cycle phases was performed using a dedicated software package, Modfit v. 2.0 (Becton Dickinson)."}, "[2]": {"test_system": "human ovarian carcinoma A2780", "assay": "Antitumoral activity in human ovarian carcinoma model A2780", "format": "in vivo, CD1 nu/nu mice", "conditions": "qdx5x3w", "method": "The human ovarian carcinoma cells A2780, A2780/Dx and NCIH460 were maintained in RPMI-1640 containing 10% FCS, 2 mM glutamine, 50 μg/ml gentamicin, at 37° C. in a humidified atmosphere containing 5% CO2. The cells were trypsinised, collected in complete medium, centrifuged at approx. 1100 rpm for 10 minutes and the precipitate resuspended in Hank's 199 Medium; this operation was carried out twice. The cells were resuspended in Hank's 199 Medium at a density of 20×10^6/ml and 0.1 ml (equal to 2×10^6 cells/mouse) were injected s.c. into the right flank of CD1 nu/nu 6 week-old, female mice.\nThe ST1926 solution was prepared immediately before use and solubilised in cremophor:ethanol 1:1 and subsequently diluted 1:4 in buffered saline solution. The animal treatments were administered in a volume of 10 ml/kg. The treatment protocol for ST1926 at different doses was for 5 consecutive days (qd×5), beginning one day following tumor cell inoculation and repeated for 3 cycles. Measurements of tumor dimensions were performed using a digital calliper (Vernier Caliper) twice weekly, from the time in which the mass was measurable. The tumor mass was evaluated from the size of the two principal dimensions (length and breadth), expressed in mm, applying the formula (length×breadth^2)/2, that is, the tumor volume in mm3. For each experimental group, the percentage of tumor volume inhibition was calculated (TVI %), with respect to the control, namely (100−(T/C %). TVI was evaluated 2 days after the final administration of ST1926.\nThe mice were measured until the control group tumors had reached a weight of 2 g, then the mice were sacrificed by cervical dislocation.\nA comparison between the TVI values obtained for each group was performed using the non parametric Mann Whitney test for non-paired data, using the Instat software from GraphPad inc.\nThe mice were weighed prior to each treatment, firstly, so as to be able to administer the correct quantity of substance based on the possible changes in weight observed throughout the course of administration of the drug, and also to record the maximum weight loss throughout the treatment (BWL % max)."}, "[3]": {"test_system": "human microvascular endothelial (HMVE) cells", "conditions": "after 96 h of treatment, cited from earlier work"}}, "data": [{"molecule": "O=C(O)/C=C/c1ccc(-c2ccc(O)c(C34CC5CC(CC(C5)C3)C4)c2)cc1", "note": "[ST1926, E-4-(3-(1-adamantyl)-4-hydroxyphenyl)cinnamic acid]", "values": [{"measurement": "APOPTOSIS", "setting": "[1]; HL-60, 0.0025 μM", "result": 8}, {"measurement": "G0/G1", "setting": "[1]; HL-60, 0.0025 μM", "result": 54.9}, {"measurement": "G2 + M", "setting": "[1]; HL-60, 0.0025 μM", "result": 11.7}, {"measurement": "S", "setting": "[1]; HL-60, 0.0025 μM", "result": 33.4}, {"measurement": "APOPTOSIS", "setting": "[1]; HL-60, 0.005 μM", "result": 14.0}, {"measurement": "G0/G1", "setting": "[1]; HL-60, 0.005 μM", "result": 53.4}, {"measurement": "G2 + M", "setting": "[1]; HL-60, 0.005 μM", "result": 12.2}, {"measurement": "S", "setting": "[1]; HL-60, 0.005 μM", "result": 34.4}, {"measurement": "APOPTOSIS", "setting": "[1]; HL-60, 0.01 μM", "result": 12.5}, {"measurement": "G0/G1", "setting": "[1]; HL-60, 0.01 μM", "result": 52.0}, {"measurement": "G2 + M", "setting": "[1]; HL-60, 0.01 μM", "result": 12.6}, {"measurement": "S", "setting": "[1]; HL-60, 0.01 μM", "result": 35.4}, {"measurement": "APOPTOSIS", "setting": "[1]; HL-60, 0.05 μM", "result": 13.0}, {"measurement": "G0/G1", "setting": "[1]; HL-60, 0.05 μM", "result": 45.0}, {"measurement": "G2 + M", "setting": "[1]; HL-60, 0.05 μM", "result": 13.0}, {"measurement": "S", "setting": "[1]; HL-60, 0.05 μM", "result": 42.0}, {"measurement": "APOPTOSIS", "setting": "[1]; HL-60, 0.1 μM", "result": 27.5}, {"measurement": "G0/G1", "setting": "[1]; HL-60, 0.1 μM", "result": 39.9}, {"measurement": "G2 + M", "setting": "[1]; HL-60, 0.1 μM", "result": 13.3}, {"measurement": "S", "setting": "[1]; HL-60, 0.1 μM", "result": 46.8}, {"measurement": "APOPTOSIS", "setting": "[1]; HL-60, 0.5 μM", "result": 82}, {"measurement": "APOPTOSIS", "setting": "[1]; HL-60, 1 μM", "result": 86.5}, {"measurement": "effect on HL-60 cells (in words)", "setting": "[1]; HL-60, 0.5 and 1 μM, three days, cell cycle not measurable", "result": "strong pro-apoptotic effect"}, {"measurement": "BWL % Max", "setting": "[2]; A2780, 5 mg/kg p.o.", "result": 3, "unit": "%"}, {"measurement": "Lethality", "setting": "[2]; A2780, 5 mg/kg p.o.", "result": "0/8"}, {"measurement": "TVI % ± SE", "setting": "[2]; A2780, 5 mg/kg p.o.", "result": "*34 ± 8%"}, {"measurement": "BWL % Max", "setting": "[2]; A2780, 10 mg/kg p.o.", "result": 5, "unit": "%"}, {"measurement": "Lethality", "setting": "[2]; A2780, 10 mg/kg p.o.", "result": "0/8"}, {"measurement": "TVI % ± SE", "setting": "[2]; A2780, 10 mg/kg p.o.", "result": "*39 ± 5%"}, {"measurement": "inhibition (%) at 0.5 μM", "setting": "[3]; 0.5 μM, relative to vehicle alone control", "result": 90, "unit": "%"}, {"measurement": "IC50", "setting": "[3]; highest concentration evaluated 0.5 μM, read-out: IC50 (concentration inhibiting proliferation by 50%)", "result": 100, "unit": "nM"}]}]}
